Experimental data as given in PMC7873226, “Molecular mechanism and structural basis of small-molecule modulation of the gating of acid-sensing ion channel 1” (Communications Biology, 2021).
Changes are numbered by the printed parent chain.

Key:
rat ASIC1a = molecular target: T1, rat ASIC1a (Rattus norvegicus, UniProt P55926); assay: Kinetics of onset of and recovery (wash) from compound inhibition; format: cell-based; details: for time constant of current inhibition: holding pH 8.2, pH 6.0 test pulses; for pH 6.8-induced current, % pH7.4 control: holding pH 7.4, one cell; for pH 6.8-induced current, % pH8.2 control: holding pH 8.2, one cell; for max - % pH7.4 or 8.2 Control (Y): maximal wash current / ss - % pH7.4 or 8.2 Control (Y): steady-state wash current: after 100 nM
T1 construct: expressed in transfected cells
T1 sequence (P55926 1-526): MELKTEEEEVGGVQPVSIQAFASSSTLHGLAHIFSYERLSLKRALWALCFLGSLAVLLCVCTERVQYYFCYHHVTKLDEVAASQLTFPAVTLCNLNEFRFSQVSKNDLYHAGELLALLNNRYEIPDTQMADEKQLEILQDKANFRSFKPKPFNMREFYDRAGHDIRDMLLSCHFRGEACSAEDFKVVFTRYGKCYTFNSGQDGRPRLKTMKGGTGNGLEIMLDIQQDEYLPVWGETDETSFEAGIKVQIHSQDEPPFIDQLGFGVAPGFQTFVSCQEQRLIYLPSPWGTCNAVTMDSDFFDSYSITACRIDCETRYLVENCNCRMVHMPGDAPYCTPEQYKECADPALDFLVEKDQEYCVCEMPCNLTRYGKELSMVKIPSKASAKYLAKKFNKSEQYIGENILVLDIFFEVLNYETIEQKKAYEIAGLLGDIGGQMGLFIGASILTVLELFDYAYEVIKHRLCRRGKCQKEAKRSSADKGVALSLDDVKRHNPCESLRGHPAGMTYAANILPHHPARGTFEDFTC
Procedure: (§1) Chinese Hamster Ovary (CHO) cells stably expressing rat ASIC1a were cultured in Ham’s F12, supplemented with 10% FBS, 1% penicillin–streptomycin and 500 µg/mL G418 and incubated at 37 °C with 5% CO2. Transient transfections of rASIC1a and cASIC1 wild-type or mutant channels in CHO cells were performed with Lipofectamine 3000 (Thermo Fisher Scientific) according to the manufacturer’s recommendations. The green fluorescent protein (GFP) cDNA (at 1/10 the amount of channel cDNA) was co-transfected with channel cDNA to aid the identification of transfected cells under the microscope in patch clamp experiments. All cDNAs were sequence verified.
Cells were freshly dissociated with CellStripper (Corning) and dispersed in a chamber on the stage of an inverted microscope. Upon formation of the whole-cell conformation, the cell was lifted from the bottom of the chamber and placed at the tip of a tubing perfusing an extracellular solution containing (in mM): 149 NaCl, 2 CaCl2, 4 KCl, 1 MgCl2, 5 glucose, 10 HEPES, pH 7.4, 310 mOsm/L. Extracellular solutions at more basic or acidic pHs were made by titrating the above pH 7.4 solution with NaOH or HCl (5 mM MES was added to solutions at pH 6.0 and lower). Pipette electrodes were filled with an intracellular solution containing (in mM): 135 KCl, 4 MgATP, 0.3 Na2GTP, 10 EGTA, and 20 HEPES, pH 7.2, 290 mOsm/L.
All recordings were performed at room temperature using an Axopatch 200B amplifier and pClamp 11 software (Molecular Devices). Currents were measured by whole-cell patch clamp, digitized at 10 kHz and lowpass filtered at 2 kHz. Series resistance was 75% compensated. Responses were elicited by rapid perfusion of acidic solutions using the SF-77B Fast-Step Perfusion device (Warner Instruments) for 40 ms once every 30 s (unless indicated otherwise) and recorded till steady state was reached. The holding potential was 0 mV unless indicated otherwise.
Baseline values (i.e., current amplitudes at the conditioning pH) were subtracted to obtain responses evoked by the test pH. Responses were normalized for each cell before averaging (see figure legends for more detail on normalization for each type of experiment). Concentration–response data were fitted to a logistic function of the form: R = (A1–A2)/(1 + (C/C0)^h)+A2, where R is the normalized response, C is either pH or compound concentration, C0 is the pH/concentration at which half-maximal response occurs (pH50 or IC50), h is the Hill coefficient, and A1 and A2 are constants. Kinetic parameters were obtained by fitting the data with either a single or double exponential function. Fitted data are shown as solid, dashed, or dotted curves.

rASIC1a Y340A = molecular target: T2, rASIC1a Y340A (Rattus norvegicus, UniProt P55926, Y340A); assay: Inhibition of pH 6.0-induced current of mutant channel Y340A; format: cell-based
T2 construct: expressed in transfected cells; host or cells: CHO cells, transient transfection (GFP cDNA co-transfected separately)
T2 sequence (P55926 1-526 Y340A): T1 sequence (P55926 1-526) with Y340A
Procedure: as §1
Cells were freshly dissociated with CellStripper (Corning) and dispersed in a chamber on the stage of an inverted microscope. […]
All recordings were performed at room temperature using an Axopatch 200B amplifier and pClamp 11 software (Molecular Devices). Currents were measured by whole-cell patch clamp, digitized at 10 kHz and lowpass filtered at 2 kHz. […] Responses were elicited by rapid perfusion of acidic solutions using the SF-77B Fast-Step Perfusion device (Warner Instruments) for 40 ms once every 30 s (unless indicated otherwise) and recorded till steady state was reached. […]

[1] = 100 nM, t = -50 s (wash starts at t = 0 s)
[2] = holding pH 7.4 (source data Fig. 2d)
[3] = holding pH 8.2 (source data Fig. 2d)

## COc1ccc(Oc2ccc(-c3nc4cc(C(=N)N)ccc4[nH]3)cc2)cc1OC [JNJ-799760]
Rat ASIC1a; 100 nM
  time constant of current inhibition: 1.6 ± 0.1 s
Rat ASIC1a; 1 µM
  time constant of current inhibition: 0.2248 ± 0.0189 s
rASIC1a Y340A
  IC50: 260 ± 89.8 nM

## Cc1cc(N2CC(Oc3cc(F)c4c(N)n[nH]c4c3)C2)c(F)cn1 [JNJ-67869386]
Rat ASIC1a; 100 nM, holding pH 7.4
  overshoot of maximum wash current above pre-block control level: > 50%
Rat ASIC1a; 100 nM, t = 0 s
  pH 6.8-induced current, % pH7.4 control: 4.9%
  pH 6.8-induced current, % pH8.2 control: 4.5%
Rat ASIC1a; 100 nM, t = -10 s
  pH 6.8-induced current, % pH7.4 control: 4.7%
  pH 6.8-induced current, % pH8.2 control: 7.4%
Rat ASIC1a; 100 nM, t = -20 s
  pH 6.8-induced current, % pH7.4 control: 3.6%
  pH 6.8-induced current, % pH8.2 control: 4.9%
Rat ASIC1a; 100 nM, t = -30 s
  pH 6.8-induced current, % pH7.4 control: 3.3%
  pH 6.8-induced current, % pH8.2 control: 4.9%
Rat ASIC1a; 100 nM, t = -40 s
  pH 6.8-induced current, % pH7.4 control: 4.5%
  pH 6.8-induced current, % pH8.2 control: 5.7%
Rat ASIC1a; [1]
  pH 6.8-induced current, % pH7.4 control: 6.7%
  pH 6.8-induced current, % pH8.2 control: 47.2%
Rat ASIC1a; 100 nM
  time constant of current inhibition: 3.6 ± 0.2 s
Rat ASIC1a; 100 nM, wash at pH 7.8, pH 6.0-evoked currents
  time constant of wash from inhibition: 12.6 ± 0.6 s
Rat ASIC1a; 100 nM, wash at pH 8.2, pH 6.0-evoked currents
  time constant of wash from inhibition: 12.7 ± 1.3 s
Rat ASIC1a; [2]
  max - % pH7.4 or 8.2 Control (Y): maximal wash current: 154.4%
  ss - % pH7.4 or 8.2 Control (Y): steady-state wash current: 95.3%
Rat ASIC1a; [3]
  max - % pH7.4 or 8.2 Control (Y): maximal wash current: 96.9%
  ss - % pH7.4 or 8.2 Control (Y): steady-state wash current: 96.8%
Rat ASIC1a; wash after 100 nM, t = 10 s
  pH 6.8-induced current, % pH7.4 control: 36.5%
  pH 6.8-induced current, % pH8.2 control: 18.2%
Rat ASIC1a; wash after 100 nM, t = 20 s
  pH 6.8-induced current, % pH7.4 control: 90.8%
  pH 6.8-induced current, % pH8.2 control: 43.8%
Rat ASIC1a; wash after 100 nM, t = 30 s
  pH 6.8-induced current, % pH7.4 control: 132.5%
  pH 6.8-induced current, % pH8.2 control: 63.8%
Rat ASIC1a; wash after 100 nM, t = 40 s
  pH 6.8-induced current, % pH7.4 control: 161.6%
  pH 6.8-induced current, % pH8.2 control: 78.5%
Rat ASIC1a; wash after 100 nM, t = 50 s
  pH 6.8-induced current, % pH7.4 control: 157.3%
  pH 6.8-induced current, % pH8.2 control: 78.9%
Rat ASIC1a; wash after 100 nM, t = 60 s
  pH 6.8-induced current, % pH7.4 control: 153.5%
  pH 6.8-induced current, % pH8.2 control: 93.2%
Rat ASIC1a; wash after 100 nM, t = 70 s
  pH 6.8-induced current, % pH7.4 control: 157.1%
  pH 6.8-induced current, % pH8.2 control: 87.4%
Rat ASIC1a; wash after 100 nM, t = 80 s
  pH 6.8-induced current, % pH7.4 control: 151.7%
  pH 6.8-induced current, % pH8.2 control: 90.7%
Rat ASIC1a; wash after 100 nM, t = 90 s
  pH 6.8-induced current, % pH7.4 control: 149.4%
  pH 6.8-induced current, % pH8.2 control: 90.7%
Rat ASIC1a; wash after 100 nM, t = 100 s
  pH 6.8-induced current, % pH7.4 control: 151.7%
  pH 6.8-induced current, % pH8.2 control: 91.5%
Rat ASIC1a; wash after 100 nM, t = 110 s
  pH 6.8-induced current, % pH7.4 control: 141.4%
  pH 6.8-induced current, % pH8.2 control: 90.6%
Rat ASIC1a; wash after 100 nM, t = 120 s
  pH 6.8-induced current, % pH7.4 control: 127.3%
  pH 6.8-induced current, % pH8.2 control: 89.7%
Rat ASIC1a; wash after 100 nM, t = 130 s
  pH 6.8-induced current, % pH7.4 control: 116.2%
  pH 6.8-induced current, % pH8.2 control: 92.5%
Rat ASIC1a; wash after 100 nM, t = 140 s
  pH 6.8-induced current, % pH7.4 control: 120.1%
  pH 6.8-induced current, % pH8.2 control: 93.0%
Rat ASIC1a; wash after 100 nM, t = 150 s
  pH 6.8-induced current, % pH7.4 control: 108.5%
  pH 6.8-induced current, % pH8.2 control: 92.2%
Rat ASIC1a; wash after 100 nM, t = 160 s
  pH 6.8-induced current, % pH7.4 control: 117.3%
  pH 6.8-induced current, % pH8.2 control: 93.0%
Rat ASIC1a; wash after 100 nM, t = 170 s
  pH 6.8-induced current, % pH7.4 control: 108.8%
Rat ASIC1a; wash after 100 nM, t = 180 s
  pH 6.8-induced current, % pH7.4 control: 100.4%
Rat ASIC1a; wash after 100 nM, t = 190 s
  pH 6.8-induced current, % pH7.4 control: 95.1%
Rat ASIC1a; wash after 100 nM, t = 200 s
  pH 6.8-induced current, % pH7.4 control: 97.0%
Rat ASIC1a; wash after 100 nM, t = 210 s
  pH 6.8-induced current, % pH7.4 control: 100.5%
Rat ASIC1a; wash after 100 nM, t = 220 s
  pH 6.8-induced current, % pH7.4 control: 101.0%
rASIC1a Y340A
  IC50: 572 ± 177 nM
